Assays:
melanoma B16 [1] = test: activity toward melanoma B16 implanted subcutaneously, I.V. route; type: in vivo, mouse; conditions: 20 mg/kg/inj. days 3, 7, 11
Protocol: The activity of the substances of the invention was also tested by administering the said substances of the invention by the I.V. route. 0.5 ml of an homogenate of the tumor (1 g/10 ml) is administered to B6C3F1 female mice by the subcutaneous (S.C. route) on day 0. The products of the invention and the substances used for comparison are administered on days 3, 7 and 11 in isotonic solution.
In Table IIA below the results are presented relating to the activity of the substance CI. 1675 administered by the I.V. route on the growth of the melanoma B16 implanted subcutaneously, in comparison with carmustine BCNU marketed under the name of BiCNU®.
In Table IIA below and in the subsequent tables, T represents the mean weight (or median) of the tumors in the treated mice, C represents the mean weight (or median) of the tumors in the control, untreated mice and the ratio T/C% corresponds to T/C×100.

colon carcinoma C38 [2] = test: colon carcinoma C38, comparison of I.V. and I.P. routes, treatment days 8, 12, 16; type: in vivo, mouse; parameters: key to Median wt. of the tumor D20 / Median wt. of the tumor D27: median tumor weight in mg; conditions: I.P. Route, 20 mg/kg/inj.
Protocol: With a view to verifying the antitumor activity of the product of the invention CI.1671 when it is administered by the I.V. route, another experiment was performed in which this product was administered by the I.P. route and the I.V. route for the purposes of comparison.
This experiment is carried out under particularly difficult conditions, the first day of the treatment corresponding to the eighth day after the implantation of the carcinoma C38, whereas normally the treatment starts on the day of implantation of the tumor (D0) or 1 day after (D1) the implantation of the tumor.
The median weight of the tumors on the first day of treatment (day 8) is about 12 mg (tumors varying from 8 to 40 mg). The animals are treated on days 8, 12 and 16 depending on the different routes indicated. […]

leucemia L 1210 IGR = test: "in vivo" activity on leucemia L1210 IGR, 20 mg/kg i.p. days 1, 5, 9; parameters: species or system mouse; conditions: for percentage of cured mice: surviving more than 60 days
Protocol: Female DBA2 mice were used, about 8 weeks old and weighing about 20 g from the IFFA-CREDO center (les Oncins, 69210 Arbresles)
At day "0", each mouse received intraperitoneally an inoculum of […] in a volume of 0.2 ml.
After tumoral graft, the mice were distributed at random into 21 cages of 5 animals, themselves then distributed, by drawing lots, into 6 experimental series. Within these 6 experimental series, there were constituted a control series of 6 cages and 5 experimental series of 3 cages each, and of which the mice were intended to be treated by the compounds of the invention.
(§1) The protocol was identical for the 3 tumors and the 5 compounds of the invention to be tested.
(§2) As regards the experimental series to be treated, each mouse received, at days 1, 5 and 9, intraperitoneally, a dose of 20 mg/kg of the compound to be tested, in the volume of 0.2 ml of neutralized and sterilized olive oil.
(§3) As regards the control series, each mouse received, intraperitoneally, 0.2 ml of neutralized and sterilized olive oil.
(§4) The results are expressed by the relative increase in survival (T/C×100) calculated from the average survival of the treated animals (T) and that of the control animals (C)
(§5) The mice surviving more than 60 days were considered as cured.
(§6) The figures between parentheses indicate the percentage of cured mice.

L 1210 IGR TUMOR = test: "in vivo" activity on L1210 IGR tumor, 5 mg/kg i.p. days 1, 5, 9; parameters: species or system mouse
Protocol: (§7) The experiments were identical to those described in preceding paragraph 4 but lower doses were used.
The same protocol was carried out with the tumor L1210 IGR, by inoculating 10^5 tumor cells of L1210 IGR intraperitoneally in the volume of 0.2 ml then, at days 1, 5 and 9, there were injected intraperitoneally 5 mg/kg of each of the compounds to be tested.

L 1210 USA Tumor = test: "in vivo" activity on L1210 U.S.A. tumor, 5 mg/kg i.p. days 1, 5, 9; parameters: species or system mouse
Protocol: The tumor L1210 U.S.A. is more resistant than tumor L1210 IGR.
as §7
There were inoculated into the mice, 10^5 tumor cells of L1210 U.S.A. intraperitoneally in a volume of 0.2 ml.
At days 1, 5 and 9, the compounds of the invention under test were injected intraperitoneally, at a lower dose than that used in the experiment described at 4, that is to say in the proportion of 5 mg/kg.

Tumor LEWIS 3LL = test: "in vivo" activity on Lewis tumor, 20 mg/kg i.p. days 1, 5, 9; parameters: species or system mouse; conditions: for percentage of cured mice: surviving more than 60 days
Protocol: Procedure was under the conditions which have just been described previously with regard to melanoma B16, by injecting the tumor cells, in the proportion of 2×10^6 per mouse, in the volume of 0.2 ml.
as §1, §2, §3, §4, §5, §6

melanoma B16 [3] = test: "in vivo" activity on melanoma B16, 20 mg/kg i.p. days 1, 5, 9; parameters: species or system mouse; conditions: for percentage of cured mice: surviving more than 60 days
Protocol: Female C57 B 1/6 mice were used, about 8 weeks old and weighing about 20 g, from the IFFA-CREDO center.
At day "0", each mouse received intraperitoneally an inoculum of 2×10^6 tumor cells in a volume of 0.5 ml.
After tumoral graft, distribution at random was carried out as indicated above, to obtain a control series of 8 cages and 5 experimental series of 4 cages each, and of which the mice were intended to be treated by the compounds of the invention.
as §1, §2, §3, §4, §5, §6

[4] = toxicological results, single I.P. dose, DL0 and DL50; type: in vivo, mouse; conditions: mice
Text: DL0, DL50, single I.P. dose administered to the aforementioned strains of mice.

L1210 U.S.A. = test: antitumor activity on leukemia L1210 U.S.A., products of examples 33-39, I.P.; type: in vivo, mouse
Protocol: The experiments were always carried out on female mice which were specific pathogen-free (S. P. F.),
either of the line DBA/2JIco
or of the line B6 D2 F1/JIco (first generation hybrids between the lines C57BL/6 and DBA/2).
On the day of the graft (by convention day 0=D0) an inoculum of 1×10^5 tumor cells in a volume of 0.2 ml is administered to each mouse by the intraperitoneal route (I.P.).
This inoculum is prepared by diluting ascites fluid taken from the peritoneum of a donor female mouse in NCTC 109 medium (Eurobio Laboratories, Paris, France), counting of the cells in a MALASSEZ cell under a microscope and adjustment of the concentration to 5×10^5cells […] by means of the same medium.
The tumor line is an American strain of the line L1210.
After the tumor graft, the mice are distributed at random in cages of 5 animals. Subsequently, these cages containing 5 mice are themselves distributed at random into a control group (control) and groups treated with the I.C. products.
The doses of the products of the invention used in the different experiments are expressed in milligrams per kilogram of body weight.
The products to be injected were dissolved in isotonic sodium chloride solution.
2 protocols for treatment were used in the different experiments:
either a single injection on D1, by the intraperitoneal (I.P.) or intravenous (I.V.) route,
or 3 I.P. injections on D1, D5, D9.
In each experiment the animals of the control group received 1 or more injections, depending on the experimental protocol used, by the same route (I.P. or I.V.) of the same volume (0.2 ml/20 g) of the vehicle without the active principle (isotonic sodium chloride solution).
the number and percentage of the total of the mice surviving to D60,
the T/C×100 for the treated groups.
T representing the mean survival time of the mice in the treated group,
C representing the mean survival time of the mice in the control group (controls).

L 1210 cells = test: cytotoxic index after 1 h contact, potential "in vivo" activity (TEST N° 2); type: cell-based, mouse
Protocol: The test used is that of W. J. Durkin et al. Cancer Research 1979, 39, 402-407, modified.
All the nitrosoureas were dissolved in 70% ethanol in the proportion of 10 mg/ml.
2--Determination of the potential "in vivo" activity
L 1210 cells, under conditions similar to the preceding protocol, were contacted for 1 hour with a dose of the various products tested corresponding to a cytotoxic index equal to 20%. After this time, the cells were placed in culture medium not containing nitrosoureas and incubated at 37° C. After 48 hours, the cytotoxic index was determined.

colon carcinoma C38 [5] = test: activity on colon carcinoma C38 implanted subcutaneously, I.P. days 2 and 9; type: in vivo, mouse; conditions: I.P.
Protocol: A tumor fragment is implanted on day 0 in female B6 D2 F1 mice (19-22 g). The treatment with all of the products is administered by the I.P. route on days 2 and 9 (which is a delayed treatment). The weight of the tumors is calculated on day 20.

[6] = DBA2, I.P. D1, D5, D9, 3×2.5 mg/kg
[7] = DBA2, I.P. D1, D5, D9, 3×10 mg/kg

SMILES	relative increase in survival (T/C×100) (leucemia L 1210 IGR)	percentage of cured mice (leucemia L 1210 IGR) [%]	Median survival (L 1210 IGR TUMOR)	T/C × 100 (average survival) (L 1210 IGR TUMOR)	T/C × 100 (median survival) (L 1210 IGR TUMOR)	Average survival ±2 σm (L 1210 USA Tumor)	Median survival (L 1210 USA Tumor)	T/C × 100 (average survival) (L 1210 USA Tumor)	T/C × 100 (median survival) (L 1210 USA Tumor)	relative increase in survival (T/C×100) (Tumor LEWIS 3LL)	percentage of cured mice (Tumor LEWIS 3LL) [%]	relative increase in survival (T/C×100) (melanoma B16 [3])	percentage of cured mice (melanoma B16 [3]) [%]	DL0 [4] [mg/kg]	also measured
O=NN(CCCl)C(=O)NCCCl [BCNU, (1,3-bis-2-chloroethyl)-1-nitrosourea, reference compound]	–	–	–	–	–	–	–	–	–	–	–	–	–	–	Median weight of the tumor on day 3 (melanoma B16 [1]): 40 mg; Median weight of the tumor on day 30 (melanoma B16 [1]): 2 581 mg; T/C on day 30 (tumor weight) (melanoma B16 [1]): 33,0%; Median wt. of the tumor D20 (colon carcinoma C38 [2]): 196; Median wt. of the tumor D27 (colon carcinoma C38 [2]): 274; Mice without tumor/total D20 (colon carcinoma C38 [2]): 0/8; Mice without tumor/total D27 (colon carcinoma C38 [2]): 0/6; T/C % D20 (colon carcinoma C38 [2]): 34%; T/C % D27 (colon carcinoma C38 [2]): 21%
CO[C@@H]1C[C@@H](NC(=O)N(CCCl)N=O)[C@H](O)[C@@H](CO)O1 [IC 1184, Methyl 3-[3-(2-chloroethyl) 3-nitrosoureido] 2,3-didesoxy α-D-arabinohexopyranoside]	556	47	24	378	265	18 ± 1,19	17,8	209	205	.infin. (The sign 00 indicates that 50% at least of the mice were cured)	90	235	15	–	–
CO[C@H]1O[C@H](C)C[C@H](NC(=O)N(CCCl)N=O)[C@H]1O [IC. 85-1590, methyl 3-[3-(2-chloroethyl) 3-nitroso-ureido] 3,4,6-trideoxyα-D-xylo-hexopyranoside]	–	–	–	–	–	–	–	–	–	–	–	–	–	≥ 25	–
CO[C@@H]1O[C@@H](C)C[C@@H](NC(=O)N(CCCl)N=O)[C@@H]1O [IC. 85-1626, methyl 3-[3-(2-chloroethyl) 3-nitrosoureido] 3,4,6-trideoxyα-L-xylo-hexopyranoside]	–	–	–	–	–	–	–	–	–	–	–	–	–	≥ 20	Number of survivors on D60 (L1210 U.S.A.; DBA2, I.P. D1, 1×20 mg/kg): 3/10; Number of survivors on D60 (L1210 U.S.A.; [6]): 0/10; T/C (L1210 U.S.A.; [6]): 150; Number of survivors at D60 (L1210 U.S.A.; [7]): 3/10; T/C (L1210 U.S.A.; [7]): 275; LD50 ([4]; mouse, in vivo, ip): ~40 mg/kg
CO[C@@H]1C[C@@H](NC(=O)N(CCCl)N=O)[C@H](O)[C@@H](CNC(=O)N(CCCl)N=O)O1 [IC 1374, Methyl bis 3,6-[3-(2-chloroethyl) 3-nitrosoureido] 2,3,6-tridesoxy α-D-arabinohexopyranoside]	.infin. (The sign 00 indicates that 50% at least of the mice were cured)	67	16,75	189	185	12,9 ± 0,55	13,1	150	151	.infin. (The sign 00 indicates that 50% at least of the mice were cured)	75	246	10	–	CYTOTOXIC INDEX (L 1210 cells; 1 hour contact at dose giving 20% index, read after 48 hours): 71%; POTENTIAL "IN VIVO" ACTION (L 1210 cells; active if cytotoxic index ≥40%): + (if the cytotoxic index was equal to or greater than 40%, the product concerned would be active "in vivo" in the mouse); Average survival ±2 σm (L 1210 IGR TUMOR): 17,1 ± 2,10
CN(C)S(=O)(=O)CCNC(=O)N(CCCl)N=O [TCNU, reference compound]	–	–	–	–	–	–	–	–	–	–	–	–	–	–	Number of mice without tumor/total (colon carcinoma C38 [5]; 7.5 mg/kg/inj. days 2 and 9): 2/10; T/C (colon carcinoma C38 [5]; 7.5 mg/kg/inj. days 2 and 9): 65%; Weight of the tumor on day 20 (colon carcinoma C38 [5]; 7.5 mg/kg/inj. days 2 and 9): 266 mg; Number of mice without tumor/total (colon carcinoma C38 [5]; 15 mg/kg/inj. days 2 and 9): 7/10; T/C (colon carcinoma C38 [5]; 15 mg/kg/inj. days 2 and 9): 0%; Weight of the tumor on day 20 (colon carcinoma C38 [5]; 15 mg/kg/inj. days 2 and 9): 0 mg; dead mice (remarks) (colon carcinoma C38 [5]; 30 mg/kg/inj. days 2 and 9): 10
